Laboratory results as given in PMC6290777, “Inhalation of the prodrug PI3K inhibitor CL27c improves lung function in asthma and fibrosis” (Nature Communications, 2018).

Tests used:
[1] = tested on: OVA-induced chronic allergic asthma; test: OVA-induced chronic allergic asthma model; format: in vivo, BALB/c mice
Description: (§1) BALF was performed to obtain leukocytes from alveolar space. The trachea was exposed and a 1.7-mm-outside-diameter polyethylene catheter was inserted. BAL was performed by washing the lungs three-times with three different 500 µl aliquots of PBS. BALF samples were centrifuged at 600 × g for 10 min at 4 °C on a histology glass slide and stained with Diff Quick (MICROPTIC, #DQ-ST). The number of leukocytes and differential counts of different population were obtained evaluating the percentage leukocyte populations over the total cell number.
Mice were anesthetized with a subcutaneous injection of ketamine and xylazine (130 mg/Kg ketamine and 8.5 mg/Kg xylazine) to maintain spontaneous breathing under anesthesia. Mice were tracheostomized, placed in a body plethysmograph and connected to a computer-controlled ventilator (Forced Pulmonary Maneuver System®, Buxco Research Systems©, Wilmington, North Carolina USA). First, an average breathing frequency of 160 breaths/min was imposed to the anesthetized animal by a pressure-controlled ventilation until a regular breathing pattern and complete expiration at each breathing cycle was obtained. Under mechanical respiration, respiratory flow and airway pressure were measured to compute dynamic compliance (Cdyn) and lung resistance (RL). To measure the TLC, pressure–volume maneuvers were performed, where lungs were inflated to a standard pressure of +30 cm H2O and then let slowly exhale until a negative pressure of −30 cm H2O was reached. To measure the FEV Fast-Flow Volume maneuvers was performed. In this maneuver, lungs were first inflated to +30 cm H2O (TLC) and, immediately, a negative pressure (−30 cm H2O) was applied in order to enforce expiration. To evaluate AHR, the same mice used in previous maneuvers (basal condition) received Metacholine, 1 mg/Kg (Acetyl-β-methylcholine chloride, A-2251, Sigma-Aldrich St.Louis, MO,USA) i.v., and 20 sec after, a new set of maneuvers were conducted to assess RL changes. Suboptimal maneuvers were rejected and for each test in every single mouse at least three acceptable maneuvers were conducted to obtain a reliable mean for all numeric parameters.
On day 1, BALB/c mice received systemic immunization by subcutaneous injection of 10 µg of chicken egg ovalbumin (OVA grade V, >98% pure; Sigma, St Louis, MO) diluted in 2 mg/mL Al(OH)3 followed by a booster injection at the day 14 (described in fig. 3). Nasal challenges were performed starting at the day 28, by inhalational exposure to aerosolised ovalbumin (1% ovalbumin in saline 0,9%) for 20 min per day, in alternated days during 16 days (day 28, 30, 32, 34, 36, 38, 40, 42 and 44). At the same time, mice received daily treatment from day 28 to 44 with CL27c (2 mg/ml dissolved in 0.5 % tylaxopol/saline solution, aerosolized for 30′) or vehicle (0.5% tyloxapol/saline solution, aerosolized for 30′), or dexamethasone (5 mg/kg i.p. injection). Untreated control groups included mice challenged with PBS alone. On day 45, mice were sacrificed, and samples were collected for further analysis.
(§2) IL-5, IL-13, eotaxin, TGF-β, KC, IL-17A, and MCP-1 levels in the BALF and anti-OVA IgE levels in serum were measured by ELISA technique using commercial DuoSet kits R&D Systems according to the instructions of the manufacturer. Results were expressed in levels of cytokines per ml of […] (pg/ml) or arbitrary units (A.U.).
The left lung was removed and fixed in 4% neutral phosphate-buffered formalin (pH 7.4)[10]. The tissues were dehydrated gradually in ethanol, embedded in paraffin, cut into 4 µm sections, stained with H&E, Gomori’s trichrome and periodic acid schiff (PAS), and examined under light microscopy by a pathologist in a double blinded manner. Images of lung sections were captured with a digital camera (Optronics DEI-470) connected to a microscope (Olympus IX70) with a magnification of ×40 or ×100. […]

[2] = tested on: OVA-induced acute allergic asthma; test: OVA-induced acute allergic asthma model; format: in vivo, BALB/c mice
Description: On Days 1 and 14, BALB/c mice (6–8 weeks) received an intraperitoneal injection (i.p.) of a solution containing 0.5 mg/ml OVA and 5 mg/ml Alum (described in Fig. 2). Untreated controls were injected with a solution of 5 mg/ml Alum. […] Untreated control groups included mice challenged with PBS alone. On day 29, mice were sacrificed, and samples were collected for further analysis.
as §1, §2
Immunohistochemistry for CD18 was performed using the streptavidin-biotin-peroxidase method in formalin-fixed, paraffin-embedded tissue sections (5 µm thick) mounted on poly-L-lysine-coated microscope slides. Lung cross-sections were deparaffinized and rehydrated through xylene and graded alcohols. After antigen retrieval, endogenous peroxidase was blocked (15 min) with 3% (v/v) hydrogen peroxide and washed in phosphate-buffered saline (PBS). Sections were incubated overnight (4 °C) with primary rabbit anti-CD18 antibody (Acris Antibodies GmbH, Germany, Cat. Number B0842-1) diluted 1:400 in PBS plus bovine serum albumin (PBS-BSA) or rabbit anti/PAkt (S473) diluted 1:100 in PBS/BSA. The slides were then incubated with biotinylated goat anti-rabbit antibody (Dako Agilent Pathology Solution, USA) diluted 1:1000 in PBS/BSA. After washing, the slides were incubated with avidin-biotin-horseradish peroxidase conjugate (Dako Agilent Pathology Solution, USA) for 30 min, according to the manufacturer’s instructions. CD18 and PAkt-positive cells were visualized with the chromogen 3,3′-diaminobenzidine (DAKO liquid DAB + substrate chromogen system, CA, USA). Slides were counterstained with Harry’s hematoxylin, dehydrated in a graded alcohol series, cleared in xylene, and cover slipped.
Lung, liver, and heart samples were collected for western blot detection of akt phosphorilation levels. Protein samples were resolved by 10% SDS-PAGE and transferred on to PVDF (Immobilon™-P) membranes. The membranes were blocked with 5% BSA in 1x TBS with 0.3% Tween 20 for 30 min at […]. Then, the membranes were incubated overnight at 4 °C with primary antibodies (phosphorylated Akt serine 473, 1:1000, Cell Signaling Technology, Cat. Number 4060) and 1 h with HRP-conjugated secondary antibody (1:10000). The blots were visualized in ECL solution for 1 min and images were captured on Luminescent Image Analyser (ChemiDoc Imaging Systems, Bio-Rad Laboratories, USA). For loading control, the blots were striped and reassessed with pan Akt (1:1000) antibody. For quantification, specific phosphorylation was calculated as the ratio of signals for phosphorylated Akt to the signal of total Akt detected. Values of unstimulated samples were set to 1.0. Uncropped scans of the most important blots are provided as a supplementary figure in the Supplementary Information (Supplementary Fig. 15).

[3] = CL27c 2 mg/ml aerosol or dexamethasone 5 mg/kg
[4] = aerosolized CL27c 2 mg/ml daily

## COC(=O)c1cccc(Cn2cc(-c3cccc4c(=O)cc(N5CCOCC5)[nH]c34)nn2)c1 [CL27c]
[1]; [3]
  accumulation of inflammatory cells in peribronchial and perivascular spaces: significantly decreased
  lung function: lung resistance (RL) and dynamic compliance (Cdyn): normalize lung function
  peribronchial fibrosis (fibrotic airway remodeling): significantly reduced
[1]; aerosolized CL27c 2 mg/ml
  methacholine-evoked airway hyperresponsiveness: not able to modify methacholine-evoked airway hyperresponsiveness
[1]; [4]
  metaplasia of goblet cells and mucus production (PAS): prevented OVA-induced metaplasia of goblet cells and mucus production
  reduction of tissue levels of eosinophil peroxidase (EPO): 55%
  reduction of tissue levels of myeloperoxidase (MPO): 50%
[1]; repeated administration
  Th2 mediators IL-5, IL-13, and Eotaxin: lowering of Th2 mediators
[2]; OVA-challenged mice as described in Fig. 2, inhaled CL27c
  TGF-β in lung tissue lysates: reduction of transforming growth factor-β (TGF-β) and IL-13 to the level detected in unsensitized controls
[2]; OVA-challenged mice as described in Figure 2, inhaled CL27c
  IL-10 in lung tissue lysates: increased pulmonary abundance of IL-10
[2]; highest dose, 20 mg/ml
  efficacy on OVA-induced acute asthma: inconsistent outcomes
[2]; inhaled CL27c 2 mg/ml
  IL-5 and IL-13 levels in lung tissue: restored both IL-5 and IL-13 to the levels detected in unsensitized control mice
  reduction of eosinophils accumulation in BALF: 70%
  reduction of lymphocytes accumulation in BALF: 72%
  reduction of macrophages accumulation in BALF: 60%
  reduction of neutrophils accumulation in BALF: 68%
[2]; inhaled CL27c 2 mg/ml, day 29
  Akt phosphorylation in lung lysates and sections: decrease in Akt phosphorylation
[2]; inhaled CL27c 2 mg/ml, immunohistochemistry
  CD18-positive leukocyte recruitment to the lung: reduced leukocyte recruitment
[2]; lowest dose, 0.2 mg/ml
  efficacy on OVA-induced acute asthma: no efficacy
